Results taken from US12178791B2, “Haloallylamine sulfone derivative inhibitors of lysyl oxidases and uses thereof” (Syntara Limited, priority 2018, dated 2024).
Entries after “also recorded” stand apart in the source; their conditions may differ. Where a name gives a salt, the structure may show the parent alone. Read-outs that look alike come from different tables or passages of the source.

What was measured:
lysyl oxidase = experiment: Target engagement: lysyl oxidase activity, ear slice assay; assay type: in vivo, Wistar rats
Experimental: The ears, collected right after sacrifice of the rats (treated or untreated with a LOX inhibitor), were snap frozen in dry ice for −80° C. storage. For the assay, 5×5 mm samples were cut (still half-thawed), embedded in agarose gel and cut in cross sections […] thick (vibratome). The thin sections were collected in ice cold PBS containing protease inhibitors, and allowed to rest in the bath for 2-3 hours, to allow soluble contaminants to diffuse away prior to the assay. For a 96 well plate format: three thin slices were collected, gently blotted dry on Kimwipe, and transferred to each well containing 100 μl of assay buffer (1.2 M urea, 50 mM sodium borate buffer, pH 8.2), for a 30 minute pre-incubation at 37° C. in presence of 1 μM mofegiline and 500 μM pargyline. BAPN (500 μM) had been added to all the “low control” wells. A minimum of three replicas were performed for each condition.
After pre-incubation, 100 μl of Amplex Red-horseradish peroxidase (HRP) mix (120 μM Amplex Red, 1.5 U/mL HRP, 20 mM putrescine) were added to all wells, and the plate was read at 37° C. every 2.5 minutes for 13 times, (544 nm excitation and 590 nm emission, on a BMG Clariostar, in orbital, top reading mode). The slope of the kinetic curves, subtracted by the values obtained in the low controls (in presence of BAPN), was considered a measure of the specific lysyl oxidase activity in the sample.
Young male Wistar rats were given a single oral dose (10 or 30 mg/kg) of Compounds 1 or 33 (Table 5 and 6 respectively) and the enzymatic activity was measured in tissues with a high basal activity at this age, in the ear (FIGS. 2a and b; Compound 1 and 33 respectively) and aorta (FIG. 3c; Compound 33 only). The responses were normalised to the activity measured in animals treated with saline (control).

[1] = target: Human recombinant SSAO/VAP-1 (Homo sapiens (Human), UniProt Q16853); experiment: Inhibition of human recombinant SSAO/VAP-1; assay type: biochemical
Human recombinant SSAO/VAP-1, sequence (Q16853 34-763): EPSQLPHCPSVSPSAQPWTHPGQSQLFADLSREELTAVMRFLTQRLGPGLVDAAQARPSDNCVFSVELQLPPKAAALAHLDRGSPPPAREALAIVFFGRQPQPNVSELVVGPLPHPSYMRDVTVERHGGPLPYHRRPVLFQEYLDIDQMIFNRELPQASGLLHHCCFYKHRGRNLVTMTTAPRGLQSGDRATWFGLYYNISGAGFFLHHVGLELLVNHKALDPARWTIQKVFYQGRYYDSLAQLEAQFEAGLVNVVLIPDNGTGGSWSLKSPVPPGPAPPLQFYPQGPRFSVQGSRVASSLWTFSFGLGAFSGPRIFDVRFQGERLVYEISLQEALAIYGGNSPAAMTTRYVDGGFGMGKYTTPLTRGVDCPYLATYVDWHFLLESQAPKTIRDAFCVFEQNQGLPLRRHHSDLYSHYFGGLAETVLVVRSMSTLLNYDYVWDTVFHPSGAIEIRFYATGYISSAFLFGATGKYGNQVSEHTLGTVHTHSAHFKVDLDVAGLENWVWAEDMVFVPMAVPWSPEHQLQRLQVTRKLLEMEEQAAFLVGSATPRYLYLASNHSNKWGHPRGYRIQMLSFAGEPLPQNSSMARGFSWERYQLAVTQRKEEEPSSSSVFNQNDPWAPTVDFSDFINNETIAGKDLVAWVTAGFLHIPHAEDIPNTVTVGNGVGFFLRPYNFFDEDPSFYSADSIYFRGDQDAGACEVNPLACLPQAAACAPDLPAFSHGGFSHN
In short: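 Purified enzyme (residues 34-763, expressed in CHO Lec8 cells; 0.25 μg/mL in 0.1 M sodium phosphate pH 7.4) was preincubated with compound 30 min at 37 °C. An added mix held 600 μM benzylamine, 120 μM Amplex Red and 1.5 U/mL HRP. Fluorescence (ex 565/em 590 nm) was read every 2.5 min for 30 min at 37 °C, and IC50 was derived from kinetic slopes over 4-11-point curves.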

LOXL2 = LOXL2 (Homo sapiens (Human), UniProt Q9Y4K0); experiment: Jump dilution experiment, sustained inhibition of LOXL2; assay type: biochemical; settings: jump dilution after 40 min at 37 °C with 10× or 30× IC50; vs non-inhibited controls;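 also: 30× IC50 used only where needed so inhibitor exceeds enzyme concentration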
LOXL2, sequence (Q9Y4K0 26-774): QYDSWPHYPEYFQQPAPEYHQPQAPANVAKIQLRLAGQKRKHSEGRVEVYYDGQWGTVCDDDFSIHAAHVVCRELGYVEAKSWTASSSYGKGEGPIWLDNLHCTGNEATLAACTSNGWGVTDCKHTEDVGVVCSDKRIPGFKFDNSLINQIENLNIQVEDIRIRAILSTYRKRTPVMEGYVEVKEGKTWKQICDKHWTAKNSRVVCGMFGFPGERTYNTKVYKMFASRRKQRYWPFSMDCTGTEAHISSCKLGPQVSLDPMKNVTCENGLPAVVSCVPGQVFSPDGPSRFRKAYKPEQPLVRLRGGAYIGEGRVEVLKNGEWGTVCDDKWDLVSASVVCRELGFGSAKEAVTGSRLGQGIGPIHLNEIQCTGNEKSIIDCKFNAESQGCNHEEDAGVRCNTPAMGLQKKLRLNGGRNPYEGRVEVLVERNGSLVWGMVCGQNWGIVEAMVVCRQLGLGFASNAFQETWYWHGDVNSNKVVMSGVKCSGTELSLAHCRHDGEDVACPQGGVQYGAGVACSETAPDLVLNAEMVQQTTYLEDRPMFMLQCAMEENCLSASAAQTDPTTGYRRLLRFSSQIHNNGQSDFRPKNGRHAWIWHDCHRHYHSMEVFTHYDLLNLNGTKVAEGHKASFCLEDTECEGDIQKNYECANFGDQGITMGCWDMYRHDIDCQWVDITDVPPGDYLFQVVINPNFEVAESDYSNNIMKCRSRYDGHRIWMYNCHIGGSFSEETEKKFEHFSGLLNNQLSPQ
Experimental: Jump Dilution experiment: The assay was developed using a 96 well format and the starting enzyme concentration was set 100 times higher than for the inhibition studies. […] After the incubation, the mixture was diluted 50× in assay buffer, followed by a further 2× dilution in Amplex Red-horseradish peroxidase-putrescine reaction mix (same as per the inhibition studies) prior to the fluorescent measurement. Results were expressed in % recovery of the signal after a specified time by comparison with non-inhibited controls.

LOXL1 = LOXL1 (Homo sapiens (Human), UniProt Q08397); experiment: Jump dilution experiment, sustained inhibition of LOXL1; assay type: biochemical; settings: jump dilution after 40 min at 37 °C with 10× or 30× IC50; vs non-inhibited controls;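 also: 30× IC50 used only where needed so inhibitor exceeds enzyme concentration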
LOXL1, sequence (Q08397 96-574, species assumed): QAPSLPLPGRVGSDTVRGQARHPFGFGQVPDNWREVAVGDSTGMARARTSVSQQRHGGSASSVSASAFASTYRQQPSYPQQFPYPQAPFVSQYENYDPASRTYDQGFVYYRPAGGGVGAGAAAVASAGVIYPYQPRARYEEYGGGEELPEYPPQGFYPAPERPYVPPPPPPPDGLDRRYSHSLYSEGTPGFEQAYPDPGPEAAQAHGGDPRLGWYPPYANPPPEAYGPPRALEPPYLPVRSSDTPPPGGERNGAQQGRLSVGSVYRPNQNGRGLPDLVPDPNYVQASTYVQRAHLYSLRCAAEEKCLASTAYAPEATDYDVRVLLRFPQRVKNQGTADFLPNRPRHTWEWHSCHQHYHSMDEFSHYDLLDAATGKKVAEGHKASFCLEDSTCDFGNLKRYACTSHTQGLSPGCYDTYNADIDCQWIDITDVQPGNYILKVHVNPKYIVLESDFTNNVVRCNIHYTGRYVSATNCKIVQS
In short: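 Enzyme preincubated with inhibitor at 100× the inhibition-study enzyme concentration, then diluted 50× in assay buffer and 2× in Amplex Red–HRP–putrescine mix. Fluorescence read; activity expressed as % signal recovery after a set time versus uninhibited controls.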

[2] = 30 min preincubation at 37 °C, benzylamine 600 μM, read-out: SSAO/VAP-1 Activity IC50

Row | SMILES | LOX activity in rat ear (lysyl oxidase; 24 hours after single oral dose at 10 and 30 mg/kg, vs saline control, hydrochloride) | IC50 [1, 2] [µM] | IC50 ([1]; second Table 6 (Example 38), read-out: Recombinant human SSAO (rhSSAO) inhibition (IC50)) [µM] | LOXL2 - Recovery of activity. (%) (LOXL2) | LOXL1 - Recovery of activity. (%) (LOXL1) | lysyl oxidase activity in rat tissue (lysyl oxidase; single high (30 mg/kg) oral dose) | half-life of recovery of lysyl oxidase activity (ear) (lysyl oxidase; single oral dose 30 mg/kg) [h]
1 | NC/C=C(\F)CS(=O)(=O)c1ccccc1 [Compound 1, (Z)-3-fluoro-4-(phenylsulfonyl)but-2-en-1-amine hydrochloride] | dose-dependent block; also recorded: dose dependent, sustained reduction | > 30 | > 100 | 9.5 | 2.4 |  | 
2 | NC/C=C(\F)CS(=O)(=O)c1cccc2cccnc12 [Compound 33, (Z)-3-fluoro-4-(quinolin-8-ylsulfonyl)but-2-en-1-amine dihydrochloride] |  | > 10 |  | 6.9 | 4.5 | completely abolish | 48 to 72
